Read-outs that look alike come from different tables or passages of the source.
Experiments:
[1] = Resazurin Cell Growth Inhibition Assay, WI38 normal cells; format: cell-based; settings: human, WI38 normal lung fibroblast cells, WI-38 normal cells, mean ± SD of three experiments, read-out: Cytotoxic Activity IC50
Experimental: (§1) Compounds 1–4 were assessed for their in vitro cytotoxic activity against three human cell lines i.e., breast (MCF-7), liver (HepG2), colon (HCT-116) cancer cell lines as well as in lung fibroblast (WI38) normal cell line using the Resazurin Cell Growth Inhibition Assay. Both erlotinib and 5-Fluorouracil (5-FU) were used as reference drugs. Concentrations of the tested compounds that give about 50% inhibition of cell viability (IC50, mean of triplicate) in µM were obtained. […] However, if replaced by a hydrazone substituent, a more prominent efficacy toward the three cancer cell lines was observed. […] The most promising in vitro antiproliferative activity was obtained when the hydrazone is bearing electron-withdrawal groups i.e., 4-chlorobenzylidene moiety (compound 3f), 3,4-dichloro benzylidene moiety (compound 3g) and 4-fluorobenzylidene moiety (compound 3h) compared to the standard treatment (Table 1, Figure 5). The inhibitory activity of compounds was reduced when the hydrazone group is bearing electron donating groups i.e., 4-methyl group (compound 3b), 2-methoxy group (compound 3c), 4-hydroxy (compound 3d) and 4-dimethylamino group (compound 3e). The trend of antiproliferative activity of compounds […] against all tested cell lines has the following descending order: (3g > 3h >3f >3a >3b > 3c > 3d > 3e). […]. […] This is mainly because this compound has the highest lipophilicity as well as less electron density as it has 2-Cl atoms (more electronegativity) on the indolyl pyrimidine-thiazolidinone.
(§2) In vitro cytotoxicity was measured according to the Resazurin Cell Growth Inhibition Assay Alamar Blue or Resazurin (Promega, Mannheim, Germany) reduction assay was used to assess the cytotoxicity of the studied samples. The assay tests cellular viability and mitochondrial function. Briefly, adherent cells were grown in tissue culture flasks, and then harvested by treating the flasks with 0.025% trypsin and 0.25 mM EDTA for 5 min. Once detached, cells were washed, counted, and an aliquot (5 × 10^3 cells) were placed in each well of a 96-well cell culture plate in a total volume of […]. Cells were allowed to attach overnight and then treated with samples. […]. Each assay was performed as triplicates. […] […]. The viability was compared based on a comparison with untreated cells. IC50 (on cancer cells) were the concentration of sample required to inhibit 50% of the cell proliferation and were calculated from a calibration curve by a linear regression using Microsoft Excel.

[2] = test system: MCF-7 breast cancer cell line; experiment: Resazurin Cell Growth Inhibition Assay, MCF-7; format: cell-based; settings: Homo sapiens, MCF7; MCF-7, 48 h, mean ± SD of three experiments; read-out: Cytotoxic Activity IC50
Experimental: as §1, §2

[3] = test system: HepG2 liver cancer cell line; experiment: Resazurin Cell Growth Inhibition Assay, HepG2; format: cell-based, human
Experimental: as §1, §2

[4] = test system: HCT-116 colon cancer cell line; experiment: Resazurin Cell Growth Inhibition Assay, HCT-116; format: cell-based, human
Experimental: as §1, §2

[5] = target: EGFR kinase (Homo sapiens, UniProt P00533); experiment: In vitro EGFR inhibitory assay (EnzyChrom Kinase Assay Kit EKIN-400); settings: for inhibition at 10 µM: read-out: % Inhibition of EGFR
Sequence of EGFR kinase (P00533 25-1210): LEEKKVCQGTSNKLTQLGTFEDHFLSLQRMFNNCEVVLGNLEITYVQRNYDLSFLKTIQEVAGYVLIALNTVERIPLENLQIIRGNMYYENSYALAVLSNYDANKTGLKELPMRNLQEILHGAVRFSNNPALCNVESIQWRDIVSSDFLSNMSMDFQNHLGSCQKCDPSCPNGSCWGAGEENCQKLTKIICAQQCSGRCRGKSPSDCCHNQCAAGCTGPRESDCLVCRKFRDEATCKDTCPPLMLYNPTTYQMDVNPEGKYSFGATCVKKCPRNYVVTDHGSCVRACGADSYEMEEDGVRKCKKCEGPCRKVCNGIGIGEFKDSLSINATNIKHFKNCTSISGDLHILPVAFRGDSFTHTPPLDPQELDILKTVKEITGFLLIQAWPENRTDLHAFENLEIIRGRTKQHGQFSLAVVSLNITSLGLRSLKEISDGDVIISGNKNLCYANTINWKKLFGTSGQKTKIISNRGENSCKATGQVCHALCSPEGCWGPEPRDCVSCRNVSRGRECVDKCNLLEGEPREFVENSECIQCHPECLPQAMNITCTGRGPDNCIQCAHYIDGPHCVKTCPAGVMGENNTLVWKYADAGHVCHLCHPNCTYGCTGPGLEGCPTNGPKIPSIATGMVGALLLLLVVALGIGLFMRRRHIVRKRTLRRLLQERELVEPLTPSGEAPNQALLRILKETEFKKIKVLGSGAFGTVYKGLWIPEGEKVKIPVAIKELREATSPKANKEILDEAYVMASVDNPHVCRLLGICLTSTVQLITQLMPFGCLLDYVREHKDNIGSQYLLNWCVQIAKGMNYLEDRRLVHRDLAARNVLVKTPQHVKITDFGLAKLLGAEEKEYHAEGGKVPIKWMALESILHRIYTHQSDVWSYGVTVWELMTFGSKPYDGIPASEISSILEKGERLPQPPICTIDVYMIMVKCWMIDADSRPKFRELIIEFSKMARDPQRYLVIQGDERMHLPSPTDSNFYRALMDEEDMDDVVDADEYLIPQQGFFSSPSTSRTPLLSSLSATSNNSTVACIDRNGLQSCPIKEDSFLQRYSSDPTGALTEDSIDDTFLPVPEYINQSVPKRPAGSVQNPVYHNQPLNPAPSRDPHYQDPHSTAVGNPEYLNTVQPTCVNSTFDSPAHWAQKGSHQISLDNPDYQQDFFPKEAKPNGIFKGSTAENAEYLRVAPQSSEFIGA
Experimental: A first-generation EGFR inhibitor, erlotinib, was used as standard treatment. […] IC50 for these compounds was determined. […] In addition, 20 µL reaction mixture containing the EGFR kinase, ATP, and substrate in the provided assay buffer. Set up a blank control that contains ATP and substrate but no enzyme. Incubate at desired temperature for 30 min. Prepare 900 µL 10µM (adenosine diphosphate) ADP premix by mixing 3 µL of 3 mM standard and 897 µL distilled water. Transfer 20 µL standards into separate wells of the plate. Prepare enough working reagent for each well. Add 40 µL working reagent to each assay well. Tap plate to mix. Incubate at room temperature for 10 min. Read fluorescence intensity at λexc = 530nm and λem = 590 nm, and then calculate kinase activity.

[6] = test system: Ehrlich ascites carcinoma (EAC); experiment: In vivo antitumor assay in EAC tumor bearing mice; settings: 0.5 mg/mouse for nine days; for Tumor Volume: ascitic fluid; for MST (mean survival time): mean of two experiments; for Viable Tumor Cell Count: trypan blue
Experimental: The antitumor activity of these compounds was assessed by the change in tumor volume, viable cell count, mean survival time (MST) and % increase in lifespan (% ILS) of the EAC tumor bearing mice and 5-FU (standard treatment). The mean survival time (MST) and % increase in lifespan (% ILS) of EAC tumor bearing mice, as well as the influence of these compounds on viable tumor cells and the tumor volume, are shown in Table 2. The hematological profile of these mice was also assessed in comparison with the standard treatment with 5-FU, and no obvious effect on RBCs or WBCs was observed. […] MST = (day of first death + day of last death)/2 %ILS = [(MST of treated group/MST of control group) − 1] × 100 […]
In vivo antitumor evaluation was carried out as previously reported (see Supplementary Materials).
2. Biological Evaluation Details: a) In vivo antitumor assay: Materials . Adult Swiss male mice (weighing 20 -25 g) were obtained from the Department of Pharmacology, Faculty of Pharmacy, Mansoura University, Egypt.
They were kept in microlon boxes at temperature 25 ± 2 °C with a regular 12 hrs light/dark cycle. In addition, food and water were available. EAC cells (procured from NCI, Cairo, Egypt) were harvested and prepared, then their total number was counted.
Procedure. 7 Groups of mice ( n = 4) were used.
Group 1: Negative control (no EAC cells) - received normal saline.
Group 2: Positive control (EAC cells) - received normal saline.
Group 3: EAC cells - treated with compound 3g (0.5 mg/mouse).
Group 4: EAC cells - treated with compound 4f (0.5 mg/mouse).
Group 5: EAC cells - treated with compound 4g (0.5 mg/mouse).
Group 6: EAC cells - treated with compound 4h (0.5 mg/mouse).
Group 7: EAC cells - treated with 5-fluorouracil (0.5 mg/mouse).
2 x 10^6 EAC cells were injected intraperitoneally in each mouse (groups 2-7). After […]
for nine days, then blood samples were withdrawn for assessment of blood count.
Determination of tumor volume
The ascetic fluid was gathered from the peritoneal cavity and its volume was determined. It was then centrifuged, and the packed tumor cell volume was measured.
Determination of viable tumor cell count
100 μL Sample of EAC cells (from three mice per group) was utilized and diluted twenty times with saline. Cells were stained with trypan blue, viable cells are not stained, while the dead ones are stained. The number of viable cells was calculated.

[7] = Homo sapiens, HepG2, 48 h, mean ± SD of three experiments, read-out: Cytotoxic Activity IC50
[8] = Homo sapiens, HCT-116, 48 h, mean ± SD of three experiments, read-out: Cytotoxic Activity IC50

melting point	SMILES	IC50 at 48 h [1]	IC50 [2]	IC50 [3, 7]	IC50 [4, 8]	IC50 [5]	inhibition at 10 µM [5]	Tumor Volume [6]	MST (mean survival time) [6]	Viable Tumor Cell Count [6]	IC50 ([3]; Homo sapiens; HepG2, 48 h, mean ± SD of three experiments; read-out: Cytotoxic Activity IC50)	IC50 ([4]; Homo sapiens; HCT-116, 48 h, mean ± SD of three experiments; read-out: Cytotoxic Activity IC50)
–	CC1=C(C(=O)N/N=C/c2ccccc2)C(c2c[nH]c3ccccc23)NC(=S)N1 (stereo not drawn) [Compound 3a]	38.2 ± 2.1 µM	17 ± 1.8 µM	19.2 ± 1.5 µM	15.2 ± 2.32 µM	–	–	–	–	–	–	–
240 to 242 °C	CC1=C(C(=O)NN=Cc2ccc(C)cc2)C(c2c[nH]c3ccccc23)NC(=S)N1 (stereo not drawn) [Compound 3b, 4-(1H-indol-3-yl)-6-methyl-2-thioxo-1,2,3,4-tetrahydropyrimidine-5-carboxylic acid (4-methyl-benzylidene)-hydrazide]	39.1 ± 1.3 µM	18.5 ± 2.11 µM	19.4 ± 2.19 µM	15.6 ± 3.15 µM	–	–	–	–	–	–	–
220 to 222 °C	COc1ccccc1/C=N/NC(=O)C1=C(C)NC(=S)NC1c1c[nH]c2ccccc12 (stereo not drawn) [Compound 3c, 4-(1H-indol-3-yl)-6-methyl-2-thioxo-1,2,3,4-tetrahydropyrimidine-5-carboxylic acid (2-methoy-benzylidene)-hydrazide]	37.4 ± 1.49 µM	18.9 ± 2 µM	19.9 ± 2.06 µM	16.3 ± 4.16 µM	–	–	–	–	–	–	–
–	CC1=C(C(=O)N/N=C/c2ccccc2O)C(c2c[nH]c3ccccc23)NC(=S)N1 (stereo not drawn) [Compound 3d]	35.3 ± 2.42 µM	19.2 ± 2.35 µM	20.2 ± 2.33 µM	16.6 ± 1.27 µM	–	–	–	–	–	–	–
180 to 182 °C	CC1=C(C(=O)NN=Cc2ccc(N(C)C)cc2)C(c2c[nH]c3ccccc23)NC(=S)N1 (stereo not drawn) [Compound 3e, 4-(1H-indol-3-yl)-6-methyl-2-thioxo-1,2,3,4-tetrahydropyrimidine-5-carboxylic acid (4-dimethylamino-benzylidene)-hydrazide]	40 ± 2.31 µM	19.8 ± 2.7 µM	20.4 ± 2.3 µM	16.2 ± 1.15 µM	–	–	–	–	–	–	–
–	CC1=C(C(=O)N/N=C/c2ccc(Cl)cc2)C(c2c[nH]c3ccccc23)NC(=S)N1 (stereo not drawn) [Compound 3f]	29.8 ± 1.51 µM	10.7 ± 2.3 µM	10.6 ± 2.32 µM	10.2 ± 1.18 µM	–	–	–	–	–	–	–
–	CC1=C(C(=O)NN=Cc2ccc(Cl)c(Cl)c2)C(c2c[nH]c3ccccc23)NC(=S)N1 (stereo not drawn) [Compound 3g, 4-(1H-indol-3-yl)-6-methyl-2-thioxo-1,2,3,4-tetrahydropyrimidine-5-carboxylic acid (3,4-dichloro-benzylidene)-hydrazide]	30 ± 3.72 µM	9 ± 2.4 µM	10 ± 2.46 µM	8.5 ± 2.3 µM	0.5 ± 0.04 µM	53%	2.97 mL	30 days	48.00 10^6/mL	–	–
–	CC1=C(C(=O)N/N=C/c2ccc(F)cc2)C(c2c[nH]c3ccccc23)NC(=S)N1 (stereo not drawn) [Compound 3h]	28.1 ± 4.22 µM	10.2 ± 2.01 µM	10.4 ± 2.08 µM	10.1 ± 2.45 µM	–	–	–	–	–	–	–
270 to 272 °C	CC1=C(C(=O)NN2C(=O)CSC2c2ccccc2)C(c2c[nH]c3ccccc23)NC(=S)N1 (stereo not drawn) [Compound 4a, 4-(1H-indol-3-yl)-6-methyl-N-(4-oxo-2-phenylthiazolidin-3-yl)-2-thioxo-1,2,3,4-tetrahydropyrimidine-5-carboxamide]	38 ± 5.51 µM	11.2 ± 4.31 µM	17 ± 4.3 µM	12.3 ± 2.17 µM	–	–	–	–	–	–	–
220 to 222 °C	CC1=C(C(=O)NN2C(=O)CSC2c2ccc(C)cc2)C(c2c[nH]c3ccccc23)NC(=S)N1 (stereo not drawn) [Compound 4b, 4-(1H-indol-3-yl)-6-methyl-N-(4-oxo-2-(p-tolyl)thiazolidin-3-yl)-2-thioxo-1,2,3,4-tetrahydropyrimidine-5-carboxamide]	39.8 ± 4.51 µM	11.6 ± 3.22 µM	18 ± 3.2 µM	12.6 ± 1.05 µM	–	–	–	–	–	–	–
200 to 202 °C	COc1ccccc1C1SCC(=O)N1NC(=O)C1=C(C)NC(=S)NC1c1c[nH]c2ccccc12 (stereo not drawn) [Compound 4c, 4-(1H-indol-3-yl)-N-(2-(2-methoxyphenyl)-4-oxothiazolidin-3-yl)-6-methyl-2-thioxo-1,2,3,4-tetrahydropyrimidine-5-carboxamide]	29.5 ± 4.02 µM	12.3 ± 4.08 µM	18.5 ± 4.38 µM	13.2 ± 1.03 µM	–	–	–	–	–	–	–
180 to 182 °C	CC1=C(C(=O)NN2C(=O)CSC2c2ccccc2O)C(c2c[nH]c3ccccc23)NC(=S)N1 (stereo not drawn) [Compound 4d, N-(2-(2-hydroxyphenyl)-4-oxothiazolidin-3-yl)-4-(1H-indol-3-yl)-6-methyl-2-thioxo-1,2,3,4-tetrahydropyrimidine-5-carboxamide]	29.9 ± 3.63 µM	12.6 ± 1.7 µM	18.7 ± 1.2 µM	13.6 ± 1.09 µM	–	–	–	–	–	–	–
170 to 172 °C	CC1=C(C(=O)NN2C(=O)CSC2c2ccc(N(C)C)cc2)C(c2c[nH]c3ccccc23)NC(=S)N1 (stereo not drawn) [Compound 4e, N-(2-(4-(dimethylamino)phenyl)-4-oxothiazolidin-3-yl)-4-(1H-indol-3-yl)-6-methyl-2-thioxo-1,2,3,4-tetrahydropyrimidine-5-carboxamide]	20.2 ± 5.52 µM	14.2 ± 0.74 µM	18.6 ± 0.94 µM	13.7 ± 0.55 µM	–	–	–	–	–	–	–
–	CC1=C(C(=O)NN2C(=O)CSC2c2ccc(Cl)cc2)C(c2c[nH]c3ccccc23)NC(=S)N1 (stereo not drawn) [Compound 4f, N-(2-(4-chlorophenyl)-4-oxothiazolidin-3-yl)-4-(1H-indol-3-yl)-6-methyl-2-thioxo-1,2,3,4-tetrahydropyrimidine-5-carboxamide]	19.3 ± 5.87 µM	8.01 ± 1.83 µM	8.9 ± 1.73 µM	8.02 ± 0.26 µM	0.38 ± 0.02 µM	71%	2.50 mL	37 days	40.70 10^6/mL	–	–
–	O=c1[nH]cc(F)c(=O)[nH]1 [Compound 5-FU, 5-Fluorouracil, reference compound]	5.7 ± 1.5 µM	5.38 ± 0.24 µM	–	–	–	–	0.80 mL	53.0 days	19.07 10^6/mL	5.34 ± 0.4 µM	7.88 ± 0.2 µM
–	C#Cc1cccc(Nc2ncnc3cc(OCCOC)c(OCCOC)cc23)c1 [erlotinib, reference compound]	22.5 ± 0.65 µM	6.65 ± 0.82 µM	–	7.49 ± 0.65 µM	–	–	–	–	–	–	–
